From patent US12180146B2, “Antihypertensive polyol compound and derivative thereof” (TAO PHARMACEUTICAL (SUZHOU) CO., LTD, priority 2020, dated 2024)

Tests used:
[1] = system: spontaneously hypertensive rats (SHR); test: Antihypertensive activity test: blood pressure and heart rate of spontaneously hypertensive rats (SHR); type: in vivo, rat; details: 200 mg/kg; for SHR blood pressure (SBP), time after administration 1 h / SHR blood pressure (SBP), time after administration 2 h / SHR blood pressure (SBP), time after administration 3 h / SHR blood pressure (SBP), time after administration 4 h / SHR blood pressure (SBP), time after administration 5 h / SHR blood pressure (SBP), time after administration 6 h: n = 8
Experimental: Tested Drugs: Compounds of the Invention. The dosage of all compound was uniformly set to 200 mg/kg.
In the test, changes in the blood pressure before and after the administration were detected, and compared with the basic value, a reduction of SBP ≥20 mmHg after administration was judged as effective antihypertensive effects; and at the same time, changes in the heart rate before and after the administration were detected.
Heart rate was expressed as mean±standard deviation (x±s). The changes of heart rate before and after the administration were compared by using Two-sample equal variance paired t test, and P<0.05 was regarded as the standard of statistically significant difference.

[2] = system: hypoxic pulmonary hypertension model rats; test: Hypoxic pulmonary hypertension model rats, oral (gavage) treatment for 28 days; type: in vivo, SD rats; details: hypoxic PAH rats, 25 mg/kg
Experimental: An animal model of pulmonary hypertension in SD rats was established in a hypoxic and low-pressure environment, and compound 1 was administered by gavage at the same time for treatment. The rat pulmonary artery hemodynamics and right heart hypertrophy index RVHI were measured to determine whether compound 1 has effects of improving hypoxic pulmonary hypertension.
SD rats (purchased from Shanghai Xipuer-Bikai Experimental Animal Co., Ltd.), male, weighing 180-200 g, were bred in an artificially controlled animal room with each 12 hours of light and darkness at a temperature of 20-25° C. and relative humidity of 50-60%, and allowed ad libitum to food and water. The rats were randomly divided into groups according to the experimental requirements, and kept separately in cages, with 3 to 4 rats per cage. All relevant operations of animal experiments are in compliance with the provisions of “Guidelines for the Management and Use of Laboratory Animals” of China.
The hypoxic PAH model was established by placing SD male rats in a fully-automatically regulated low-pressure hypoxic chamber (atmospheric pressure of about 50 kPa, oxygen concentration of 10%) for 8 hours a day for 28 days. The rats in the blank control group were kept in a normoxic environment.
The experimental rats of hypoxic PAH model were divided into 8 groups, namely blank control group, model group, Sidenafil (25 mg/kg) group, compound 1 (10 mg/kg) group, compound 1 (25 mg/kg) group, compound 1 (50 mg/kg) group, compound 1 (100 mg/kg) group, and compound 1 (200 mg/kg) group. The concentration in the parentheses of the group name represents the administration concentration of the compound or drug. In hypoxia-induced PAH experiments, Sidenafil is often used as a positive drug, which can reduce the pulmonary artery pressure in rats and reduce the right ventricular hypertrophy and vascular remodeling. In this experiment, 25 mg/kg of Sidenafil was used as the positive drug. Both the positive drugs Sidenafil and Compound 1 were dissolved in physiological saline and formulated into solutions of different concentrations according to different administration concentrations. The rats were continuously administered for 28 days with an administration volume of 5 ml/kg. Rats in the control and model groups were given the corresponding volume of physiological saline solution via gavage. The specific grouping can be found in Table 5.
After the administration was completed, the POWERLAB biological information acquisition and treatment system was started, and the right cardiac catheter filled with 0.2% heparin sodium (Beijing Solo Technology Co. Ltd.) in normal saline was connected to the pressure transducer and then zero-calibrationed for use. After 20% urethane (Shanghai Yuanye Biotechnology Co., Ltd.) solution was injected into the abdominal cavity of the rats for anesthesia, the right neck hair was shaved and the right jugular vein was isolated and exposed. […] After the typical right ventricular waveform appeared and stabilized for a while, the waveform was recorded, and then the pressure value was read by Powerlab biological information acquisition and processing system (ADInstruments).
After the pressure was measured, the catheter was taken out, and the rat was dissected immediately to take out the heart and lung tissues. The right ventricle (RV) and the left ventricle and interventricular septum (LV+S) were separated and weighed, and the right heart hypertrophy index RVHI=RV/(LV+S) was calculated. The lung lobe tissue from the right lower part of the lung was separated, soaked in 4% paraformaldehyde (Sigma) for about 1 week to prepare a paraffin section with a thickness of 3 μm, and then conducted to hematoxylin-eosin staining (Wuhan Guge Biotechnology Co., Ltd.). […]

Row | Structure (SMILES) | SBP Difference before and after administration, 1 h [1] [mmHg] | SHR blood pressure (SBP), time after administration 1 h [1] [mmHg] | SBP Difference before and after administration, 2 h [1] [mmHg] | SHR blood pressure (SBP), time after administration 2 h [1] [mmHg] | SBP Difference before and after administration, 3 h [1] [mmHg] | SHR blood pressure (SBP), time after administration 3 h [1] [mmHg] | SBP Difference before and after administration, 4 h [1] [mmHg] | SHR blood pressure (SBP), time after administration 4 h [1] [mmHg] | SBP Difference before and after administration, 5 h [1] [mmHg] | SHR blood pressure (SBP), time after administration 5 h [1] [mmHg] | SBP Difference before and after administration, 6 h [1] [mmHg] | SHR blood pressure (SBP), time after administration 6 h [1] [mmHg] | SBP Difference before and after administration, 0 h ([1]; 0 h) [mmHg] | value of RV/(LV+S), remodeling of the right ventricle ([2]; gavage) | 2 × MT/ED ([2]; po) | RVHI ([2]; po) | RVSP ([2]; po) [mmHg] | mPAP ([2]; po) [mmHg]
1 | COc1cc(C(O)CO)ccc1O (stereo not drawn) [Compound 25] | 8 | 191 ± 6.64 | 10 | 189 ± 7.77 | 11 | 186 ± 8.18 | 15 | 184 ± 4.56 | 12 | 187 ± 14.2 | 11 | 188 ± 5.55 |  |  |  |  |  | 
2 | CC(=O)c1ccc(C(O)CO)cc1 (stereo not drawn) [Compound 10] | 6 | 186 ± 9.54 | 10 | 182 ± 7.36 | 13 | 179 ± 4.07 | 9 | 183 ± 7.65 | 7 | 185 ± 5.64 | 2 | 190 ± 6.54 |  |  |  |  |  | 
3 | OCC(O)c1ccccc1 (stereo not drawn) [Compound 2] | 16 | 169 ± 6.39 | 18 | 167 ± 4.50 | 19 | 166 ± 9.15 | 19 | 166 ± 13.7 | 20 | 165 ± 15.3 | 15 | 170 ± 8.77 |  |  |  |  |  | 
4 | COc1ccc(C(O)C(=O)O)cc1 (stereo not drawn) [Compound 17] | 9 | 186 ± 12.4 | 7 | 188 ± 12.0 | 14 | 181 ± 13.1 | 9 | 186 ± 11.4 | 15 | 180 ± 11.9 | 9 | 186 ± 10.1 | 0 |  |  |  |  | 
5 | CC(=O)OC(C)C(OC(C)=O)c1ccccc1 (stereo not drawn) [Compound 15] | 14 | 176 ± 9.55 | 18 | 172 ± 7.36 | 21 | 169 ± 4.07 | 17 | 173 ± 7.15 | 15 | 175 ± 5.61 | 10 | 180 ± 6.66 |  |  |  |  |  | 
6 | CCc1cccc(C(O)COC(=O)[C@@H](C)N)c1 (stereo partly drawn) [Compound 22] | 11 | 187 ± 6.39 | 14 | 184 ± 4.69 | 26 | 171 ± 12.14 | 25 | 173 ± 13.7 | 24 | 174 ± 15.9 | 20 | 178 ± 8.78 |  |  |  |  |  | 
7 | CCCc1nn(C)c2c(=O)[nH]c(-c3cc(S(=O)(=O)N4CCN(C)CC4)ccc3OCC)nc12 [Sildenafil, reference compound] |  |  |  |  |  |  |  |  |  |  |  |  |  | effectively reduce | 0.238 ± 0.018 | 0.240 ± 0.028 | 50.12 ± 2.96 | 14.34 ± 2.48
8 | CCOC(=O)OC(CO)c1cccc(CC)c1 (stereo not drawn) [Compound 19] | 12 | 182 ± 11.6 | 16 | 178 ± 10.8 | 17 | 177 ± 10.9 | 13 | 181 ± 15.80 | 10 | 184 ± 16.0 | 8 | 186 ± 17.7 |  |  |  |  |  | 
9 | CCc1cccc(C(CO)OC(=O)CN)c1 (stereo not drawn) [Compound 23] | 10 | 186 ± 6.39 | 9 | 187 ± 4.66 | 15 | 181 ± 9.15 | 13 | 183 ± 13.7 | 18 | 178 ± 15.9 | 18 | 178 ± 8.78 |  |  |  |  |  | 
